These results are taken from paper PMC8587465, “Naturally Available Flavonoid Aglycones as Potential Antiviral Drug Candidates against SARS-CoV-2” (Molecules, 2021).

Converted amounts (≈) assume the structure as drawn. Like-named read-outs stand apart in the source and are kept apart here.

The test system of data set [1] is SARS-CoV-2 "NRC-03-nhCoV" virus. Briefly: In vitro anti-SARS-CoV-2 activity, IC50 by reduction of virus-induced cytopathic effect in Vero-E6 cells. Type of data set: cell-based. The conditions noted are these: read-out: inhibitory concentration 50% (IC50) against NRC-03-nhCoV. (In general: Protection from cytopathic effect is a common read-out in antiviral testing.)

Data set [2] can be described thus: Cytotoxicity (CC50) determination, crystal violet assay. Type of data set: cell-based. The conditions noted are these: African green monkey. How it is done: To assess the half-maximal cytotoxic concentration (CC50), stock solutions of the compounds were prepared in 10% DMSO in ddH2O and diluted further to the working solutions with DMEM. The cytotoxic activity of the extracts was tested in VERO-E6 cells by using a crystal violet assay, as previously described with minor modifications. Briefly, the cells were seeded in 96 well-plates (100 µL/well at a density of 3 × 10^5 cells/mL) and incubated for 24 h at 37 °C in 5% CO2. Control cells were treated with 1% DMSO in DMEM (the concentration of DMSO in the highest concentration of the tested samples). After 24 h, the cells were treated with various concentrations of the compounds in triplicates. After 72 h, the supernatant was discarded, and the cell monolayers were fixed with 10% formaldehyde for 1 h at room temperature (RT). The fixed monolayers were, then, dried and stained with 50 µL of 0.1% crystal violet for 20 min on a bench rocker at RT. The monolayers were, then, washed and dried, and the crystal violet dye in each well was dissolved with 200 µL methanol for 20 min on a bench rocker at RT. […]
All experiments were performed in three biological repeats. […] The IC50 and CC50 curves represent the nonlinear fit of “normalize” of “transform” of the obtained data; their values were calculated using GraphPad prism as “best fit value”.

The subject of the next data set is SARS-CoV-2 Mpro. The conditions noted are these: stated in the abstract for the reference standard; method and reference not given; cited from earlier work.
Where [3] appears, read: Severe acute respiratory syndrome coronavirus 2, Vero C1008, 72 h.

Take `COc1ccc(-c2cc(=O)c3c(O)c(OC)c(O)cc3o2)cc1` [Compound 2, Pectolinarigenin]: the IC50 in data set [1] (setting [3]) worked out at 12.4 µg/mL (≈ 39.5 µM).

In the case of `COc1ccc(-c2cc(=O)c3c(OC)c(OC)c(OC)c(OC)c3o2)cc1` [Compound 3, Tangeretin], the IC50 in data set [1] (setting [3]) is 2.5 µg/mL (≈ 6.71 µM).

`COc1ccc(-c2cc(=O)c3c(O)c(OC)c(OC)c(OC)c3o2)cc1` [Compound 4, Gardenin B] gave a CC50 at 72 h in data set [2] of 14100 µg/mL (≈ 39400 µM). In data set [1] (Severe acute respiratory syndrome coronavirus 2, Vero C1008, Vero-E6 cells, 100 TCID50, 72 h, CPE reduction), the IC50 was found to be 128 µg/mL (≈ 357 µM).

As to `COc1c(O)cc2oc(-c3ccc(O)cc3)cc(=O)c2c1O` [Compound 5, Hispidulin], the CC50 at 72 h in data set [2] (Vero E6 cells, 72 h, crystal violet, read-out: half-maximal cytotoxic concentration (CC50)) came out at 14100 µg/mL (≈ 47100 µM). Also, in data set [1] (setting [3]), the IC50 turned out to be 883 µg/mL (≈ 2940 µM).

Regarding `CC(C)(C)OC(=O)Nc1cccn(C(CC2CC2)C(=O)NC(CC2CCNC2=O)C(=O)C(=O)NCc2ccccc2)c1=O` (stereo not shown) [KI], the IC50 in the data set on SARS-CoV-2 Mpro was 66.72 µg/mL (≈ 112 µM).
